Data: patent publication US8158792B2, “Spiropiperidines for use as tryptase inhibitors” (Janssen Pharmaceutica N.V., priority 2007, dated 2012)

Molecular target: human lung tryptase
Assay: β-Tryptase In-Vitro Enzyme Assay
Type: biochemical
Conditions: human lung tryptase 1 nM, substrate H-D-HHT-Ala-Arg-pNa 500 μM, pH 7.4, room temperature
Experimental: The β-tryptase assay was conducted with human lung tryptase (Cortex Biochem #CP3033) in an aqueous buffer (10 mM Tris, 10 mM Hepes, 150 mM NaCl, 0.1% PEG 8000, pH 7.4) using the chromogenic substrate H-D-HHT-Ala-Arg-pNa. […] Percent inhibition was calculated by comparing the initial reaction velocity of samples without inhibitor to those with inhibitor. The initial reaction velocities were analyzed using Microsoft Excel.

IC50	Structure (SMILES)
1200 nM	NCc1ccc2c(c1)C1(CCN(C(=O)c3cccc(C(N)=O)c3)CC1)CO2 [Cpd 273, 1-(3-aminocarbonyl-phenyl)carbonyl-5′-aminomethyl-spiro[piperidine-4,3′-(2H)-benzo[b]furan]]
41 nM	NCc1ccc2c(c1)C1(CCN(C(=O)c3cccc(SC(F)(F)F)c3)CC1)CO2 [Cpd 63, 1-(3-trifluoromethylthio-phenyl)carbonyl-5′-aminomethyl-spiro[piperidine-4,3′-(2H)-benzo[b]furan]]
160 nM	NCc1ccc2c(c1)C1(CCN(C(=O)c3ccc(F)c(C(F)(F)F)c3)CC1)CO2 [Cpd 74, 1-(3-trifluoromethyl-4-fluoro-phenyl)carbonyl-5′-aminomethyl-spiro[piperidine-4,3′-(2H)-benzo[b]furan]]
610 nM	COc1cc(CC(=O)N2CCC3(CC2)COc2ccc(CN)cc23)ccc1OCc1ccccc1 [Cpd 106, 1-(3-methoxy-4-benzyloxy-benzyl)carbonyl-5′-aminomethyl-spiro[piperidine-4,3′-(2H)-benzo[b]furan]]
330 nM	Cc1cc(C)nc(SCc2ccc(C(=O)N3CCC4(CC3)COc3ccc(CN)cc34)o2)n1 [Cpd 148, 1-[5-(4,6-dimethyl-pyrimidin-2-ylthiomethyl)-furan-2-yl]carbonyl-5′-aminomethyl-spiro[piperidine-4,3′-(2H)-benzo[b]furan]]
3700 nM	NCc1ccc2c(c1)C1(CCN(C(=O)c3cccc(Cl)c3)CC1)CO2 [Cpd 39, 1-(3-chloro-phenyl)carbonyl-5′-aminomethyl-spiro[piperidine-4,3′-(2H)-benzo[b]furan]]
1.8 nM	CS(=O)(=O)N1CC2(CCN(C(=O)c3ccc(C#Cc4ccccc4)o3)CC2)c2cc(CN)ccc21 [Cpd 340, 1-(5-phenylethynyl-furan-2-yl)carbonyl-1′-methylsulfonyl-5′-aminomethyl-spiro[piperidine-4,3′-(2H)-indole]]
140 nM	NCc1ccc2c(c1)C1(CCN(C(=O)c3ccc(-c4ccc(Cl)c(Cl)c4)o3)CC1)CO2 [Cpd 138, 1-[5-(3,4-dichloro-phenyl)-furan-2-yl]carbonyl-5′-aminomethyl-spiro[piperidine-4,3′-(2H)-benzo[b]furan]]
180 nM	CSc1cccc(C(=O)N2CCC3(CC2)COc2ccc(CN)cc23)c1 [Cpd 57, 1-(3-methylthio-phenyl)carbonyl-5′-aminomethyl-spiro[piperidine-4,3′-(2H)-benzo[b]furan]]
47 nM	NCc1ccc2c(c1)C1(CCN(C(=O)c3ccc(C#Cc4ccccc4)o3)CC1)CN2C(=O)c1nnn[nH]1 [Cpd 334, 1-(5-phenylethynyl-furan-2-yl)carbonyl-1′-(1H-tetrazol-5-yl)carbonyl-5′-aminomethyl-spiro[piperidine-4,3′-(2H)-indole]]
200 nM	NCc1ccc2c(c1)C1(CCN(C(=O)c3ccc(C#Cc4ccccc4)o3)CC1)CN2S(=O)(=O)c1ccc(C(=O)O)cc1 [Cpd 324, 1-(5-phenylethynyl-furan-2-yl)carbonyl-1′-(4-carboxy-phenyl)sulfonyl-5′-aminomethyl-spiro[piperidine-4,3′-(2H)-indole]]
110 nM	NCc1ccc2c(c1)C1(CCN(C(=O)c3ccc(Cl)c(F)c3)CC1)CO2 [Cpd 46, 1-(3-fluoro-4-chloro-phenyl)carbonyl-5′-aminomethyl-spiro[piperidine-4,3′-(2H)-benzo[b]furan]]
150 nM	Cc1ccc(C(=O)N2CCC3(CC2)COc2ccc(CN)cc23)cc1C [Cpd 24, 1-(3,4-dimethyl-phenyl)carbonyl-5′-aminomethyl-spiro[piperidine-4,3′-(2H)-benzo[b]furan]]
81 nM	CC(C)(C)c1cc(C(=O)N2CCC3(CC2)COc2ccc(CN)cc23)cc(C(C)(C)C)c1 [Cpd 133, 1-(3,5-di-tert-butyl-phenyl)carbonyl-5′-aminomethyl-spiro[piperidine-4,3′-(2H)-benzo[b]furan]]
47 nM	CC(C)Sc1sc(C(=O)N2CCC3(CC2)COc2ccc(CN)cc23)c2c1C(=O)CC(C)(C)C2 [Cpd 225, 1-(3-isopropylthio-4-oxo-6,6-dimethyl-6,7-dihydro-5H-benzo[c]thien-1-yl)carbonyl-5′-aminomethyl-spiro[piperidine-4,3′-(2H)-benzo[b]furan]]
780 nM	CNC(=N)c1ccc2c(c1)C1(CCN(C(=O)c3ccc(C#Cc4ccccc4)o3)CC1)CO2 [Cpd 310, 1-(5-phenylethynyl-furan-2-yl)carbonyl-5′-[methylamino(imino)methyl]-spiro[piperidine-4,3′-(2H)-benzo[b]furan]]
2900 nM	CC(C)(C)c1ccc(/C=C/C(=O)N2CCC3(CC2)COc2ccc(CN)cc23)cc1 [Cpd 268, (E)-1-(4-tert-butyl-phenylethenyl)carbonyl-5′-aminomethyl-spiro[piperidine-4,3′-(2H)-benzo[b]furan]]

IC50	Structure (SMILES)
920 nM	NCc1ccc2c(c1)C1(CCN(C(=O)C3=CCc4ccccc43)CC1)CO2 [Cpd 286, 1-3H-inden-1-ylcarbonyl-5′-aminomethyl-spiro[piperidine-4,3′-(2H)-benzo[b]furan]]
780 nM	Cc1ccc(/C=C/C(=O)N2CCC3(CC2)COc2ccc(CN)cc23)cc1 [Cpd 180, (E)-1-(4-methyl-phenylethenyl)carbonyl-5′-aminomethyl-spiro[piperidine-4,3′-(2H)-benzo[b]furan]]
2.9 nM	CSc1sc(C(=O)N2CCC3(CC2)COc2ccc(CN)cc23)c2c1C=CCC2 [Cpd 219, 1-(3-methylthio-7-hydro-6H-benzo[c]thien-1-yl)carbonyl-5′-aminomethyl-spiro[piperidine-4,3′-(2H)-benzo[b]furan]]
73 nM	CCOc1sc(C(=O)N2CCC3(CC2)COc2ccc(CN)cc23)c2c1C(=O)CCC2 [Cpd 261, 1-(3-ethoxy-4-oxo-5,6,7-trihydro-4H-benzo[c]thien-1-yl)carbonyl-5′-aminomethyl-spiro[piperidine-4,3′-(2H)-benzo[b]furan]]
9600 nM	C[N+](C)(C)Cc1ccc2c(c1)C1(CCN(C(=O)c3ccc(C#Cc4ccccc4)o3)CC1)CO2 [Cpd 297, 1-(5-phenylethynyl-furan-2-yl)carbonyl-spiro[piperidine-4,3′-(2H)-benzo[b]furan]-5′-[methyl-(trimethyl)ammonium]]
7500 nM	NCc1ccc2c(c1)C1(CCN(C(=O)c3ccc(OC(F)(F)F)cc3)CC1)CO2 [Cpd 61, 1-(4-trifluoromethoxy-phenyl)carbonyl-5′-aminomethyl-spiro[piperidine-4,3′-(2H)-benzo[b]furan]]
1900 nM	N#Cc1cccc(C(=O)N2CCC3(CC2)COc2ccc(CN)cc23)c1 [Cpd 66, 1-(3-cyano-phenyl)carbonyl-5′-aminomethyl-spiro[piperidine-4,3′-(2H)-benzo[b]furan]]
1400 nM	NCc1ccc2c(c1)C1(CCN(C(=O)Cc3ccccc3)CC1)CO2 [Cpd 78, 1-benzylcarbonyl-5′-aminomethyl-spiro[piperidine-4,3′-(2H)-benzo[b]furan]]
8 nM	CSc1sc(C(=O)N2CCC3(CC2)COc2ccc(CN)cc23)c2c1CCCC2 [Cpd 218, 1-(3-methylthio-5,6,7-trihydro-4H-benzo[c]thien-1-yl)carbonyl-5′-aminomethyl-spiro[piperidine-4,3′-(2H)-benzo[b]furan]]
1500 nM	COCCCOc1cccc(/C=C/C(=O)N2CCC3(CC2)COc2ccc(CN)cc23)c1 [Cpd 301, (E)-1-[3-(3-methoxy-propoxy)-phenylethenyl]carbonyl-5′-aminomethyl-spiro[piperidine-4,3′-(2H)-benzo[b]furan]]
8.3 nM	Cc1ccc(C#Cc2ccc(C(=O)N3CCC4(CC3)COc3ccc(CN)cc34)o2)cc1 [Cpd 170, 1-[5-(4-methyl-phenylethynyl)-furan-2-yl]carbonyl-5′-aminomethyl-spiro[piperidine-4,3′-(2H)-benzo[b]furan]]
980 nM	NCc1ccc2c(c1)C1(CCN(C(=O)Cc3ccc(F)cc3)CC1)CO2 [Cpd 90, 1-(4-fluoro-benzyl)carbonyl-5′-aminomethyl-spiro[piperidine-4,3′-(2H)-benzo[b]furan]]
280 nM	NCc1ccc2c(c1)C1(CCN(C(=O)c3cc(-c4ccccc4)cs3)CC1)CO2 [Cpd 288, 1-(4-phenyl-thien-2-yl)carbonyl-5′-aminomethyl-spiro[piperidine-4,3′-(2H)-benzo[b]furan]]
360 nM	NCc1ccc2c(c1)C1(CCN(C(=O)c3cccc(F)c3)CC1)CO2 [Cpd 42, 1-(3-fluoro-phenyl)carbonyl-5′-aminomethyl-spiro[piperidine-4,3′-(2H)-benzo[b]furan]]
650 nM	C[C@H]1CC[C@H](C(=O)N2CCC3(CC2)COc2ccc(CN)cc23)CC1 [Cpd 38, 1-(trans-4-methyl-cyclohexyl)carbonyl-5′-aminomethyl-spiro[piperidine-4,3′-(2H)-benzo[b]furan]]
230 nM	NCc1ccc2c(c1)C1(CCN(C(=O)c3ccc(Cl)cc3)CC1)CO2 [Cpd 44, 1-(4-chloro-phenyl)carbonyl-5′-aminomethyl-spiro[piperidine-4,3′-(2H)-benzo[b]furan]]
910 nM	NCc1ccc2c(c1)C1(CCN(C(=O)c3ccc(C(F)(F)F)cc3)CC1)CO2 [Cpd 71, 1-(4-trifluoromethyl-phenyl)carbonyl-5′-aminomethyl-spiro[piperidine-4,3′-(2H)-benzo[b]furan]]

Structure (SMILES)	IC50
NCc1ccc2c(c1)C1(CCN(C(=O)/C=C/c3ccccc3)CC1)CO2 [Cpd 112, (E)-1-(phenylethenyl)carbonyl-5′-aminomethyl-spiro[piperidine-4,3′-(2H)-benzo[b]furan]]	180 nM
NCc1ccc2c(c1)C1(CCN(C(=O)/C=C/c3ccccc3)CC1)CO2 [Cpd 109, (E)-1-(phenylethenyl)carbonyl-5′-aminomethyl-spiro[piperidine-4,3′-(2H)-benzo[b]furan]]	210 nM
NCc1ccc2c(c1)C1(CCN(C(=O)C#Cc3ccccc3)CC1)CO2 [Cpd 296, 1-phenylethynylcarbonyl-5′-aminomethyl-spiro[piperidine-4,3′-(2H)-benzo[b]furan]]	210 nM
